In patent US10072011B2, “Substituted bridged urea analogs as sirtuin modulators” (GlaxoSmithKline Intellectual Property (No.2) Limited, priority 2014, dated 2018):

Molecular target: T1, SIRT1 (Homo sapiens, UniProt Q96EB6)
T1 sequence (Q96EB6 1-747): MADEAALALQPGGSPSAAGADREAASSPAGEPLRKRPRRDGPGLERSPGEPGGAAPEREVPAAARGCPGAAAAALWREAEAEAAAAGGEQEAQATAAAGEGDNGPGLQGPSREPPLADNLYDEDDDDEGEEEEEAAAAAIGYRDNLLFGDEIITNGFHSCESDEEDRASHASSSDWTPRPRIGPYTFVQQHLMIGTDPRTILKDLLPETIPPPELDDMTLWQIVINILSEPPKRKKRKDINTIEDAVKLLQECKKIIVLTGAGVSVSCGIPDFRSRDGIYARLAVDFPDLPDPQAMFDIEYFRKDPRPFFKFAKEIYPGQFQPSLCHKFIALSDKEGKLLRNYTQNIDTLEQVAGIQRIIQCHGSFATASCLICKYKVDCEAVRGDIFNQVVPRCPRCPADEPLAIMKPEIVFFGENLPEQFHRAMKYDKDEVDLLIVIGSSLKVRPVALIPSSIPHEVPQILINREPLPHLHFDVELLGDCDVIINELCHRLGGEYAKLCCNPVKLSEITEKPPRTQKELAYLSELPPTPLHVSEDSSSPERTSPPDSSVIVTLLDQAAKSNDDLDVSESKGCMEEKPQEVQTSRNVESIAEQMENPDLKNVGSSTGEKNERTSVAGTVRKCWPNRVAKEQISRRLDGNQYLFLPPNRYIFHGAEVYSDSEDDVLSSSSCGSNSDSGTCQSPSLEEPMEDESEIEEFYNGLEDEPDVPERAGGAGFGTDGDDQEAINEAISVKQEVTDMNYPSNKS
Assay: Trp mass spectrometry assay of SIRT1 activation (Ac-R-H-K-K(Ac)-W-NH2 peptide)
Assay type: biochemical
Conditions: Trp peptide 0.5 μM, 120 μM βNAD+, 10 nM SIRT1, 25 min at 25° C.; for Emax: 25 min, relative to control (100%), read-out: TRP MAX RESP (percent maximum fold activation)
Summary of the method: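 Mass spectrometry read-out (OAADPR formed, or deacetylated Trp peptide) after a 25 min NAD-dependent deacetylation by E. coli-expressed His-SIRT1, stopped with formic acid.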

SMILES	Emax	TRP Activity (EC1.5, concentration of test compound that results in 150% activation of SIRT1)
O=C(O)c1ccc(NC(=O)N2c3nc(C(=O)NCC(F)(F)F)ccc3N3CC[C@H]2C3)nc1 [Example 213, 6-((4S)-7-((2,2,2-trifluoroethyl)carbamoyl)-2,3,4,5-tetrahydro-1,4-methanopyrido[2,3-b][1,4]diazepine-5-carboxamido)nicotinic acid]	> 150%	B (EC1.5 1-25 μM)
Cc1ccc(NC(=O)N2c3nc(C(=O)NC4CC4)ccc3N3CC[C@H]2C3)nc1 [Example 215, (4S)—N7-cyclopropyl-N5-(5-methylpyridin-2-yl)-3,4-dihydro-1,4-methanopyrido[2,3-b][1,4]diazepine-5,7(2H)-dicarboxamide]	> 150%	B (EC1.5 1-25 μM)
Cn1cccc(NC(=O)N2c3nc(C(=O)NC4CC4)ccc3N3CC[C@H]2C3)c1=O [Example 216, (4S)—N7-cyclopropyl-N5-(1-methyl-2-oxo-1,2-dihydropyridin-3-yl)-3,4-dihydro-1,4-methanopyrido[2,3-b][1,4]diazepine-5,7(2H)-dicarboxamide]	> 150%	B (EC1.5 1-25 μM)
C[C@@H](NC(=O)c1ccc2c(n1)N(C(=O)NCC(=O)N(C)C)[C@H]1CCN2C1)C(F)(F)F [Example 217, (4S)—N5-(2-(dimethylamino)-2-oxoethyl)-N7-((R)-1,1,1-trifluoropropan-2-yl)-3,4-dihydro-1,4-methanopyrido[2,3-b][1,4]diazepine-5,7(2H)-dicarboxamide]	> 150%	B (EC1.5 1-25 μM)
O=C(NCCCO)c1ccc2c(n1)N(C(=O)Nc1ccccn1)[C@H]1CCN2C1 [Example 218, (4S)—N7-(3-hydroxypropyl)-N5-(pyridin-2-yl)-3,4-dihydro-1,4-methanopyrido[2,3-b][1,4]diazepine-5,7(2H)-dicarboxamide]	> 150%	B (EC1.5 1-25 μM)
O=C(NCC1CC1)c1ccc2c(n1)N(C(=O)Nc1ccncn1)[C@H]1CCN2C1 [Example 219, (4S)—N7-(cyclopropylmethyl)-N5-(pyrimidin-4-yl)-3,4-dihydro-1,4-methanopyrido[2,3-b][1,4]diazepine-5,7(2H)-dicarboxamide]	> 150%	B (EC1.5 1-25 μM)
Cn1ncc2c(NC(=O)N3c4nc(C(=O)NCC(F)(F)F)ccc4N4CC[C@H]3C4)cccc21 [Example 220, (4S)—N5-(1-methyl-1H-indazol-4-yl)-N7-(2,2,2-trifluoroethyl)-3,4-dihydro-1,4-methanopyrido[2,3-b][1,4]diazepine-5,7(2H)-dicarboxamide]	> 150%	B (EC1.5 1-25 μM)
O=C(NC1CC1)c1ccc2c(n1)N(C(=O)Nc1cnccn1)[C@H]1CCN2C1 [Example 222, (4S)—N7-cyclopropyl-N5-(pyrazin-2-yl)-3,4-dihydro-1,4-methanopyrido[2,3-b][1,4]diazepine-5,7(2H)-dicarboxamide]	> 150%	B (EC1.5 1-25 μM)
O=C(N[C@@H](CO)C(F)(F)F)c1ccc2c(n1)N(C(=O)Nc1cccnc1)[C@H]1CCN2C1 [Example 224, (4S)—N5-(pyridin-3-yl)-N7-((S)-1,1,1-trifluoro-3-hydroxypropan-2-yl)-3,4-dihydro-1,4-methanopyrido[2,3-b][1,4]diazepine-5,7(2H)-dicarboxamide]	> 150%	B (EC1.5 1-25 μM)
C[C@@H](NC(=O)c1ccc2c(n1)N(C(=O)Nc1cc(C(=O)O)ccn1)[C@H]1CCN2C1)C(F)(F)F [Example 225, 2-((4S)-7-(((R)-1,1,1-trifluoropropan-2-yl)carbamoyl)-2,3,4,5-tetrahydro-1,4-methanopyrido[2,3-b][1,4]diazepine-5-carboxamido)isonicotinic acid]	> 150%	B (EC1.5 1-25 μM)
O=C(NCc1cccnc1)c1ccc2c(n1)N(C(=O)Nc1cc(OC[C@H](O)CO)ccn1)[C@H]1CCN2C1 [Example 226, (4S)—N5-(4-((R)-2,3-dihydroxypropoxy)pyridin-2-yl)-N7-(pyridin-3-ylmethyl)-3,4-dihydro-1,4-methanopyrido[2,3-b][1,4]diazepine-5,7(2H)-dicarboxamide]	> 150%	B (EC1.5 1-25 μM)
CN(C)CCOc1ccnc(NC(=O)N2c3nc(C(=O)NCC(F)(F)F)ccc3N3CC[C@H]2C3)c1 [Example 227, (4S)—N5-(4-(2-(dimethylamino)ethoxy)pyridin-2-yl)-N7-(2,2,2-trifluoroethyl)-3,4-dihydro-1,4-methanopyrido[2,3-b][1,4]diazepine-5,7(2H)-dicarboxamide]	> 150%	B (EC1.5 1-25 μM)
CONC(=O)c1ccc2c(n1)N(C(=O)Nc1ccccn1)[C@H]1CCN2C1 [Example 228, (4S)—N7-methoxy-N5-(pyridin-2-yl)-3,4-dihydro-1,4-methanopyrido[2,3-b][1,4]diazepine-5,7(2H)-dicarboxamide]	> 150%	B (EC1.5 1-25 μM)
O=C(NC1CC1)c1ccc2c(n1)N(C(=O)Nc1cccnn1)[C@H]1CCN2C1 [Example 229, (4S)—N7-cyclopropyl-N5-(pyridazin-3-yl)-3,4-dihydro-1,4-methanopyrido[2,3-b][1,4]diazepine-5,7(2H)-dicarboxamide]	> 150%	B (EC1.5 1-25 μM)
O=C(NCC(F)(F)F)c1ccc2c(n1)N(C(=O)Nc1ccc3[nH]cnc3c1)[C@H]1CCN2C1 [Example 231, (4S)—N5-(1H-benzo[d]imidazol-5-yl)-N7-(2,2,2-trifluoroethyl)-3,4-dihydro-1,4-methanopyrido[2,3-b][1,4]diazepine-5,7(2H)-dicarboxamide]	> 150%	B (EC1.5 1-25 μM)
O=C(NCC(F)(F)F)c1ccc2c(n1)N(C(=O)Nc1ccc3[nH]c(=O)[nH]c3c1)[C@H]1CCN2C1 [Example 232, (4S)—N5-(2-oxo-2,3-dihydro-1H-benzo[d]imidazol-5-yl)-N7-(2,2,2-trifluoroethyl)-3,4-dihydro-1,4-methanopyrido[2,3-b][1,4]diazepine-5,7(2H)-dicarboxamide]	< 150%	C (EC1.5>25 μM)
C[C@@H](NC(=O)c1ccc2c(n1)N(C(=O)Nc1ccc(OC[C@@H](O)CO)nn1)[C@H]1CCN2C1)C(F)(F)F [Example 234, (4S)—N5-(6-((S)-2,3-dihydroxypropoxy)pyridazin-3-yl)-N7-((R)-1,1,1-trifluoropropan-2-yl)-3,4-dihydro-1,4-methanopyrido[2,3-b][1,4]diazepine-5,7(2H)-dicarboxamide]	> 150%	A (EC1.5<1 μM)
O=C(NCc1cccc(F)c1)c1ccc2c(n1)N(C(=O)Nc1ccccn1)[C@H]1CCN2C1 [Example 236, (4S)—N7-(3-fluorobenzyl)-N5-(pyridin-2-yl)-3,4-dihydro-1,4-methanopyrido[2,3-b][1,4]diazepine-5,7(2H)-dicarboxamide]	> 150%	A (EC1.5<1 μM)
C[C@@H](NC(=O)c1ccc2c(n1)N(C(=O)Nc1cnccn1)[C@H]1CCN2C1)C(F)(F)F [Example 237, (4S)—N5-(pyrazin-2-yl)-N7-((R)-1,1,1-trifluoropropan-2-yl)-3,4-dihydro-1,4-methanopyrido[2,3-b][1,4]diazepine-5,7(2H)-dicarboxamide]	> 150%	A (EC1.5<1 μM)
Cc1cc(NC(=O)N2c3nc(C(=O)N[C@H](C)C(F)(F)F)ccc3N3CC[C@H]2C3)ncc1F [Example 238, (4S)—N5-(5-fluoro-4-methylpyridin-2-yl)-N7-((R)-1,1,1-trifluoropropan-2-yl)-3,4-dihydro-1,4-methanopyrido[2,3-b][1,4]diazepine-5,7(2H)-dicarboxamide]	> 150%	A (EC1.5<1 μM)
